Experimental data published in patent US8802597B2, “Herbicidal pyrimidines” (E I du Pont de Nemours and Company, priority 2003, dated 2014).
Where two headings read alike, the source gives them in different places.

Key:
Type in all cases: in vivo
[1] = test system: barnyardgrass (Echinochloa crus-galli); experiment: Test A pre/postemergence; settings: Echinochloa crus-galli, 240 h, read-out: Plant response rating, Barnyardgrass; for pest or weed control at 125 g/ha: 125 g ai/ha; for pest or weed control at 500 g/ha: 500 g ai/ha
In short: (§1)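 Seeds sown in loam–sand blend received a preemergence directed soil spray of test chemical in non-phytotoxic solvent with surfactant; same-formulation postemergence spray given concurrently to plants 2–10 cm tall at 1- to 2-leaf stage. Greenhouse ~ten days, then visual injury rating versus untreated controls, 0 (no effect) to 100 (complete control).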

[2] = test system: crabgrass (Digitaria sanguinalis); experiment: Test A pre/postemergence; settings: Digitaria sanguinalis, 240 h, read-out: Plant response rating, Crabgrass; for pest or weed control at 125 g/ha: 125 g ai/ha; for pest or weed control at 500 g/ha: 500 g ai/ha
In short: as §1

[3] = test system: giant foxtail (Setaria faberi); experiment: Test A pre/postemergence; settings: Setaria faberi, 240 h, read-out: Plant response rating, Foxtail, Giant; for pest or weed control at 125 g/ha: 125 g ai/ha; for pest or weed control at 500 g/ha: 500 g ai/ha
In short: as §1

[4] = test system: morningglory (Ipomoea spp.); experiment: Test A pre/postemergence; settings: Ipomoea, 240 h, read-out: Plant response rating, Morningglory; for pest or weed control at 125 g/ha: 125 g ai/ha; for pest or weed control at 500 g/ha: 500 g ai/ha
In short: as §1

[5] = test system: redroot pigweed (Amaranthus retroflexus); experiment: Test A pre/postemergence; settings: Amaranthus retroflexus, 240 h, read-out: Plant response rating, Pigweed; for pest or weed control at 125 g/ha: 125 g ai/ha; for pest or weed control at 500 g/ha: 500 g ai/ha
In short: as §1

[6] = test system: velvetleaf (Abutilon theophrasti); experiment: Test A pre/postemergence; settings: Abutilon theophrasti, 240 h, read-out: Plant response rating, Velvetleaf; for pest or weed control at 125 g/ha: 125 g ai/ha; for pest or weed control at 500 g/ha: 500 g ai/ha
In short: as §1

[7] = test system: Surinam grass (Brachiaria decumbens); experiment: Test C pre/postemergence; settings: Urochloa decumbens; for pest or weed control at 125 g/ha: 125 g ai/ha; for pest or weed control at 62 g/ha: 62 g ai/ha
In short: (§2)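 Rating scale 0–100: 0 means no effect, 100 complete control; taken visually 12 to 14 days post-treatment versus controls. Pre- and postemergence greenhouse applications, postemergence at 1- to 4-leaf stage, non-phytotoxic solvent with surfactant as carrier.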

[8] = test system: crabgrass (Digitaria sanguinalis); experiment: Test C pre/postemergence; settings: Digitaria sanguinalis; for pest or weed control at 31 g/ha: 31 g ai/ha; for pest or weed control at 62 g/ha: 62 g ai/ha; for pest or weed control at 125 g/ha: 125 g ai/ha; for pest or weed control at 250 g/ha: 250 g ai/ha
In short: as §2

[9] = test system: giant foxtail (Setaria faberii); experiment: Test C pre/postemergence; settings: Setaria faberi; for pest or weed control at 125 g/ha: 125 g ai/ha; for pest or weed control at 31 g/ha: 31 g ai/ha; for pest or weed control at 62 g/ha: 62 g ai/ha; for pest or weed control at 250 g/ha: 250 g ai/ha
In short: as §2

[10] = test system: yellow nutsedge (Cyperus esculentus); experiment: Test C pre/postemergence; settings: Cyperus; for pest or weed control at 31 g/ha: 31 g ai/ha; for pest or weed control at 62 g/ha: 62 g ai/ha; for pest or weed control at 125 g/ha: 125 g ai/ha; for pest or weed control at 250 g/ha: 250 g ai/ha
In short: as §2

[11] = test system: chickweed (Stellaria media); experiment: Test C postemergence; settings: Stellaria media, post-emergence
In short: as §2

[12] = post-emergence, Postemergence, 0 to 100 scale (0 no effect, 100 complete control)
[13] = pre-emergence, Preemergence, 0 to 100 scale where 0 is no effect and 100 is complete control, approximately ten days
[14] = post-emergence, Postemergence, scale 0 to 100 (0 no effect, 100 complete control), read-out: Surinam Grass plant response rating
[15] = post-emergence, Postemergence, scale 0 to 100 (0 no effect, 100 complete control), read-out: Crabgrass plant response rating
[16] = pre-emergence, Preemergence, scale 0 to 100, 0 no effect, 100 complete control, read-out: Plant response rating, Crabgrass
[17] = pre-emergence, Preemergence, scale 0 to 100, read-out: Plant response rating, Crabgrass
[18] = post-emergence, Postemergence, scale 0 to 100 (0 no effect, 100 complete control), read-out: Foxtail, Giant plant response rating
[19] = pre-emergence, Preemergence, scale 0 to 100, 0 no effect, 100 complete control, read-out: Plant response rating, Foxtail, Giant
[20] = pre-emergence, Preemergence, scale 0 to 100, read-out: Plant response rating, Foxtail, Giant
[21] = post-emergence, Postemergence, scale 0 to 100 (0 no effect, 100 complete control), read-out: Nutsedge, Yellow plant response rating
[22] = pre-emergence, Preemergence, scale 0 to 100, 0 no effect, 100 complete control, read-out: Plant response rating, Nutsedge, Yellow
[23] = pre-emergence, Preemergence, scale 0 to 100, read-out: Plant response rating, Nutsedge, Yellow

`CCOC(=O)c1nc(-c2ccc(Cl)cc2)nc(N)c1Cl` [Compound 64, ethyl 6-amino-5-chloro-2-(4-chlorophenyl)-4-pyrimidinecarboxylate] was tested, and the pest or weed control at 125 g/ha [1, 12] was 25%, the pest or weed control at 500 g/ha [1, 12] was 70% and the pest or weed control at 125 g/ha [1, 13] was 0%. For the same compound, the pest or weed control at 500 g/ha [1, 13] was 60%, the pest or weed control at 125 g/ha [2, 12] was 50% and the pest or weed control at 500 g/ha [2, 12] was 70%. It also gave a pest or weed control at 125 g/ha [2, 13] of 25%, a pest or weed control at 500 g/ha [2, 13] of 90% and a pest or weed control at 125 g/ha [3, 12] of 70%. For the same compound, the pest or weed control at 500 g/ha [3, 12] was 80%, the pest or weed control at 125 g/ha [3, 13] was 15% and the pest or weed control at 500 g/ha [3, 13] was 70%. It also gave a pest or weed control at 125 g/ha [4, 12] of 80%, a pest or weed control at 500 g/ha [4, 12] of 95% and a pest or weed control at 125 g/ha [4, 13] of 40%. For the same compound, the pest or weed control at 500 g/ha [4, 13] was 70%, the pest or weed control at 125 g/ha [5, 12] was 90% and the pest or weed control at 500 g/ha [5, 12] was 100%. It also gave a pest or weed control at 125 g/ha [5, 13] of 20%, a pest or weed control at 500 g/ha [5, 13] of 100% and a pest or weed control at 125 g/ha [6, 12] of 95%. For the same compound, the pest or weed control at 500 g/ha [6, 12] was 100%, the pest or weed control at 125 g/ha [6, 13] was 25% and the pest or weed control at 500 g/ha [6, 13] was 95%. For the same compound, the pest or weed control at 125 g/ha [7, 14] was 60%, the pest or weed control at 31 g/ha ([7]; post-emergence, Postemergence, 31 g ai/ha, read-out: Plant response rating (scale of 0 to 100), Surinam Grass) was 20% and the pest or weed control at 62 g/ha [7, 14] was 60%. It also gave a pest or weed control at 62 g/ha ([7]; pre-emergence, Preemergence, scale 0 to 100, 0 no effect, 100 complete control, read-out: Plant response rating, Surinam Grass) of 0%, a pest or weed control at 125 g/ha ([7]; pre-emergence, Preemergence, scale 0 to 100, read-out: Plant response rating, Surinam Grass) of 50% and a pest or weed control at 250 g/ha ([7]; pre-emergence, Preemergence, 250 g ai/ha, scale 0 to 100, read-out: Plant response rating, Surinam Grass) of 90%. The pest or weed control at 31 g/ha ([8]; post-emergence, Postemergence, read-out: Plant response rating (scale of 0 to 100), Crabgrass) was 70%, the pest or weed control at 62 g/ha [8, 15] was 80% and the pest or weed control at 125 g/ha [8, 15] was 85%. It also gave a pest or weed control at 250 g/ha ([8]; post-emergence, Postemergence, scale 0 to 100, read-out: Plant response rating, Crabgrass) of 90%, a pest or weed control at 31 g/ha [8, 16] of 0% and a pest or weed control at 62 g/ha [8, 16] of 0%. The pest or weed control at 125 g/ha [8, 17] was 70%, the pest or weed control at 250 g/ha [8, 17] was 90% and the pest or weed control at 125 g/ha [9, 18] was 50%. For the same compound, the pest or weed control at 31 g/ha ([9]; post-emergence, Postemergence, read-out: Plant response rating (scale of 0 to 100), Foxtail, Giant) was 0%, the pest or weed control at 62 g/ha [9, 18] was 20% and the pest or weed control at 250 g/ha ([9]; post-emergence, Postemergence, scale 0 to 100, read-out: Plant response rating, Foxtail, Giant) was 50%. The pest or weed control at 31 g/ha [9, 19] was 0%, the pest or weed control at 62 g/ha [9, 19] was 0% and the pest or weed control at 125 g/ha [9, 20] was 0%. For the same compound, the pest or weed control at 250 g/ha [9, 20] was 0%, the pest or weed control at 31 g/ha ([10]; post-emergence, Postemergence, read-out: Plant response rating (scale of 0 to 100), Nutsedge, Yellow) was 40% and the pest or weed control at 62 g/ha [10, 21] was 50%. It also gave a pest or weed control at 125 g/ha [10, 21] of 50%, a pest or weed control at 250 g/ha ([10]; post-emergence, Postemergence, scale 0 to 100, read-out: Plant response rating, Nutsedge, Yellow) of 50% and a pest or weed control at 31 g/ha [10, 22] of 0%. The pest or weed control at 62 g/ha [10, 22] was 0%, the pest or weed control at 125 g/ha [10, 23] was 0% and the pest or weed control at 250 g/ha [10, 23] was 10%. For the same compound, the pest or weed control at 31 g/ha ([11]; 31 g ai/ha, read-out: Plant response rating (scale of 0 to 100), Chickweed) was 0%, the pest or weed control at 62 g/ha ([11]; 62 g ai/ha, scale 0 to 100 (0 no effect, 100 complete control), read-out: Chickweed plant response rating) was 0% and the pest or weed control at 125 g/ha ([11]; 125 g ai/ha, scale 0 to 100 (0 no effect, 100 complete control), read-out: Chickweed plant response rating) was 0%. The pest or weed control at 250 g/ha ([11]; 250 g ai/ha, scale 0 to 100, read-out: Plant response rating, Chickweed) was 55%.
